What was measured:
[1] = target: EGFR WT (Homo sapiens (Human), UniProt P00533); experiment: ErbB enzyme assay (CisBio HTRF-KinEASE-TK), EGFR WT; assay type: biochemical; conditions: ATP at Km (25 μM), 1 h incubation
How it was run: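 HTRF KinEASE-TK kinase reactions ran 1 h at ambient temperature with three-fold serial compound dilutions, then were quenched with Sa-XL665 and TK-Ab-Cryptate. After 1 h more, 655/620 nm time-resolved fluorescence gave percent of control; a 4-parameter logistic fit defined IC50 at 50 POC.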

[2] = target: ErbB2 V777L (Homo sapiens (Human), UniProt P04626, V777L); experiment: ErbB enzyme assay (CisBio HTRF-KinEASE-TK), ErbB2 V777L; assay type: biochemical
Description: In vitro enzyme assays based on CisBio HTRF-KinEASE-TK technology were used to determine compound potencies. […] After another 1 h incubation at ambient temperature, the extent of substrate phosphorylation was determined using a PerkinElmer EnVision multimode plate reader via time-resolved fluorescence dual wavelength detection. The percent of control (POC) was calculated using the ratio of emission at […] to the emission at 620 nm. One hundred POC was determined using DMSO only controls (no test compounds present) and zero POC was determined using pre-quenched controls reactions. A 4-parameter logistic equation was fit to the POC values as a function of the test compound concentration and the IC50 value was determined as the point where the curve crossed 50 POC.

Chain of EGFR WT (P00533 25-1210): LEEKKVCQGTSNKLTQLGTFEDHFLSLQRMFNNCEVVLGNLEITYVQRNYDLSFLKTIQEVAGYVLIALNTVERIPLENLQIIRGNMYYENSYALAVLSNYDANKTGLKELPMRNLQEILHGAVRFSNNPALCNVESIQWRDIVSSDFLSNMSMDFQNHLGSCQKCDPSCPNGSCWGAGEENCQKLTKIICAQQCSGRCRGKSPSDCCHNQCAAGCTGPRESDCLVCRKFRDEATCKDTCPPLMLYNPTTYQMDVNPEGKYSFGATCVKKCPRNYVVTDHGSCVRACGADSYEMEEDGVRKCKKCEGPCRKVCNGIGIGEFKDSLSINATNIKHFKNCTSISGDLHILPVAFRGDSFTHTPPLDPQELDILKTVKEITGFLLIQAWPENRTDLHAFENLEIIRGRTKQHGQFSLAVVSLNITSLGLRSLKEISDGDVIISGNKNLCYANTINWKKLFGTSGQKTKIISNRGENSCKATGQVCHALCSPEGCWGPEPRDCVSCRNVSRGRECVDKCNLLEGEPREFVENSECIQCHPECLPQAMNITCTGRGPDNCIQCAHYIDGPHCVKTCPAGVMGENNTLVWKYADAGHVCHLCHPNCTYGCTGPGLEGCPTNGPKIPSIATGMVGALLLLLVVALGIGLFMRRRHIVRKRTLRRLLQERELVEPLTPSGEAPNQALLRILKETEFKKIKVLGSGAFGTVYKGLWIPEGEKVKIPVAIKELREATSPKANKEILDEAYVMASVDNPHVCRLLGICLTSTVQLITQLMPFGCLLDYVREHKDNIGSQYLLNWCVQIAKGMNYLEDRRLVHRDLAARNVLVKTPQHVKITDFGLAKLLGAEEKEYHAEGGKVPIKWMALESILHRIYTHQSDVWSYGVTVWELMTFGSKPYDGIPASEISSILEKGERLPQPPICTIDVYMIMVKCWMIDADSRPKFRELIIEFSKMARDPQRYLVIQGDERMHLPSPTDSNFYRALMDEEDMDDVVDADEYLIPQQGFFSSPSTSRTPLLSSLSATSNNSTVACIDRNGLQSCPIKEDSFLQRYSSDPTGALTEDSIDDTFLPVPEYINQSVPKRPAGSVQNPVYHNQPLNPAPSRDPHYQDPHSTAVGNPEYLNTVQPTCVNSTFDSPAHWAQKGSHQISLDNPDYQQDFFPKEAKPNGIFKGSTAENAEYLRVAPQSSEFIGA
Chain of ErbB2 V777L (P04626 23-1255 V777L): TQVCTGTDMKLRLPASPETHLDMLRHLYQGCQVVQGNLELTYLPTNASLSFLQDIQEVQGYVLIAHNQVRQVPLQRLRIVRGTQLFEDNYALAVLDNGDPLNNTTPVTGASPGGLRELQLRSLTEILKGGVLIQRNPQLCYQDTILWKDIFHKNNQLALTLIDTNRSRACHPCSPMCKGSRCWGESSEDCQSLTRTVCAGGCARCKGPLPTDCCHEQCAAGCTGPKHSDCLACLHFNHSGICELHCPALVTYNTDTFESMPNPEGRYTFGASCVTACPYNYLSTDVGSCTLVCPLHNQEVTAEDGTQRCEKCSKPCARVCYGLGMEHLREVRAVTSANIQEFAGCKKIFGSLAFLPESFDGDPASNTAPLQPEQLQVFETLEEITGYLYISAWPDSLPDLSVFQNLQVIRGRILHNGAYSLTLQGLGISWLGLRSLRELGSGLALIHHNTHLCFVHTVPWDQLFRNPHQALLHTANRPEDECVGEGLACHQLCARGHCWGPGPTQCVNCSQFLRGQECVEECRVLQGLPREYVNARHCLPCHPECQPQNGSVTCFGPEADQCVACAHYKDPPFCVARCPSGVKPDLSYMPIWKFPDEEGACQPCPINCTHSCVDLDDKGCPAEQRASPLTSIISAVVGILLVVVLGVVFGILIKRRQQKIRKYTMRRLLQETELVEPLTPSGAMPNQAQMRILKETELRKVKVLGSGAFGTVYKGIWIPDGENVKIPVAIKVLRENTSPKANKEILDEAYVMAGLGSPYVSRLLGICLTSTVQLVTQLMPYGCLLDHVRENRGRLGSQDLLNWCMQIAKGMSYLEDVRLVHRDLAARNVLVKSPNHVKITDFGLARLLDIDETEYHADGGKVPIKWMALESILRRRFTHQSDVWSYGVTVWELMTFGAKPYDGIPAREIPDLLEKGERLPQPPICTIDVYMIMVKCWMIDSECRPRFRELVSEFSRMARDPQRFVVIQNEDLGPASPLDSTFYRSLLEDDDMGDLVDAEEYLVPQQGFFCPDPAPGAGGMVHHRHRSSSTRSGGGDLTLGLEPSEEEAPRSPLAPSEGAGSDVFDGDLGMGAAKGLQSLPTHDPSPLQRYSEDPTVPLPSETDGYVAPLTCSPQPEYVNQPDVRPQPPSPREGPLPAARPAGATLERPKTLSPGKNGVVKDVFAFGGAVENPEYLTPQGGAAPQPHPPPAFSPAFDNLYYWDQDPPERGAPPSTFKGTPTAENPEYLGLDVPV

Row | IC50 [1] [µM] | IC50 [2] [µM] | SMILES
1 | 0.1 to 0.5 | 0.05 to 0.1 | C=CC(=O)N1CCC[C@H](N(C)c2ncc3ncnc(Nc4ccc(Oc5ccc6c(c5)nnn6C)c(C)c4)c3n2)C1 [Compound 224, (S)-1-(3-(methyl(8-((3-methyl-4-((1-methyl-1H-benzo[d][1,2,3]triazol-5-yl)oxy)phenyl)amino)pyrimido[5,4-d]pyrimidin-2-yl)amino)piperidin-1-yl)prop-2-en-1-one]
2 | 0.5 to 1 | 0.05 to 0.1 | C=CC(=O)N1CCN(c2ccc3ncnc(Nc4ccc(Oc5cc6ncn(C)c6nc5C)c(C)c4)c3n2)C[C@H]1C [Compound 247, (R)-1-(4-(4-((4-((3,5-dimethyl-3H-imidazo[4,5-b]pyridin-6-yl)oxy)-3-methylphenyl)amino)pyrido[3,2-d]pyrimidin-6-yl)-2-methylpiperazin-1-yl)prop-2-en-1-one]
3 | 0.1 to 0.5 | 0.1 to 0.5 | C=CC(=O)N[C@H]1CN(c2ccc3ncnc(Nc4ccc(Oc5ccc6c(c5)nnn6C)c(C)c4F)c3n2)CC[C@@H]1F [Compound 296, N-((3S,4S)-4-fluoro-1-(4-((2-fluoro-3-methyl-4-((1-methyl-1H-benzo[d][1,2,3]triazol-5-yl)oxy)phenyl)amino)pyrido[3,2-d]pyrimidin-6-yl)piperidin-3-yl)acrylamide]
4 | 0.1 to 0.5 | 0.05 to 0.1 | C=CC(=O)N1C[C@H](C)N(c2ncc3ncnc(Nc4ccc(Oc5ccc6c(c5)nnn6C)c(C)c4)c3n2)C[C@@H]1C [Compound 187, 1-((2S,5S)-2,5-dimethyl-4-(8-((3-methyl-4-((1-methyl-1H-benzo[d][1,2,3]triazol-5-yl)oxy)phenyl)amino)pyrimido[5,4-d]pyrimidin-2-yl)piperazin-1-yl)prop-2-en-1-one]
5 | 0.05 to 0.1 | 0.05 to 0.1 | Cc1cc(Nc2ncnc3cnc(N4CCN(C(=O)/C=C/CN(C)C)CC4)nc23)ccc1Oc1ccc2c(c1)nnn2C [Compound 58, (E)-4-(dimethyl-amino)-1-(4-(8-((3-methyl-4-((1-methyl-1H-benzo[d][1,2,3]triazol-5-yl)oxy)phenyl)amino)pyrimido [5,4-d]pyrimidin-2-yl)piperazin-1-yl)but-2-en-1-one]
6 | 0.5 to 1 | 0.1 to 0.5 | C=CC(=O)N1CCN(c2ncc3ncnc(Nc4ccc(Oc5ccc6c(c5)nnn6C)c(C)c4F)c3n2)CC[C@@H]1C [Compound 169, (S)-1-(4-(8-((2-fluoro-3-methyl-4-((1-methyl-1H-benzo[d][1,2,3]triazol-5-yl)oxy)phenyl)amino)pyrimido[5,4-d]pyrimidin-2-y1)-7-methyl-1,4-diazepan-1-yl)prop-2-en-1-one]
7 | 0.1 to 0.5 | 0.5 to 1 | C=CC(=O)N1CCN(c2ccc3ncnc(Nc4ccc(Oc5ccc6c(c5)nnn6C(F)F)c(C)c4F)c3n2)C[C@H]1C [Compound 323, (R)-1-(4-(4-((4-((1-(difluoromethyl)-1H-benzo[d][1,2,3]triazol-5-yl)oxy)-2-fluoro-3-methylphenyl)amino)pyrido[3,2-d]pyrimidin-6-yl)-2-methylpiperazin-1-yl)prop-2-en-1-one]
8 | 0.5 to 1 | 0.1 to 0.5 | C=CC(=O)N(C)CCN(C)c1ccc2ncnc(Nc3ccc(Oc4ccc5c(c4)nnn5C)c(C)c3)c2n1 [Compound 76, N-methyl-N-(2-(methyl(4-((3-methyl-4-((1-methyl-1H-benzo[d][1,2,3]triazol-5-yl)oxy)phenyl)amino)pyrido[3,2-d]pyrimidin-6-yl)amino)ethyl)acrylamide]
9 | 0.1 to 0.5 | 0.05 to 0.1 | C=CC(=O)N1CCN(c2ccc3ncnc(Nc4ccc(Oc5ccc6c(c5)nnn6C)c(C)c4)c3n2)C[C@H]1C1CC1 [Compound 335, (R)-1-(2-cyclopropyl-4-(4-((3-methyl-4-((1-methyl-1H-benzo[d][1,2,3]triazol-5-yl)oxy)phenyl)amino)pyrido[3,2-d]pyrimidin-6-yl)piperazin-1-yl)prop-2-en-1-one]

— patent US20250129078A1, “ERBB2 INHIBITORS” (Cogent Biosciences, Inc., priority 2023, published 2025)
